24 compounds from patent publication US11420984B2, “Arginase inhibitors and methods of use thereof” (AstraZeneca AB, priority 2018, dated 2022) can be followed below.

Each structure is given as a SMILES string.

In data set [1] the target is Human Arginase 1 (Homo sapiens (Human), UniProt P05089). The data set is described as follows: Human Arginase 1 enzyme inhibition (thioarginine/DTNB absorbance assay). The class given is biochemical. The following applies: recombinant enzyme 5 nM, 0.5 mM thioarginine premix, 60 min. How it is done: (§1) The thiol group was detected with Ellman's reagent, 5,5′-dithiobis(2-nitrobenzoic acid) (DTNB). DTNB reacts with the thiol to give the mixed disulfide and 2-nitro-5-thiobenzoic acid (TNB) which is quantified by the absorbance of the anion (TNB^2−) at 412 nm.
Human Arginase 1, sequence (P05089 whole entry): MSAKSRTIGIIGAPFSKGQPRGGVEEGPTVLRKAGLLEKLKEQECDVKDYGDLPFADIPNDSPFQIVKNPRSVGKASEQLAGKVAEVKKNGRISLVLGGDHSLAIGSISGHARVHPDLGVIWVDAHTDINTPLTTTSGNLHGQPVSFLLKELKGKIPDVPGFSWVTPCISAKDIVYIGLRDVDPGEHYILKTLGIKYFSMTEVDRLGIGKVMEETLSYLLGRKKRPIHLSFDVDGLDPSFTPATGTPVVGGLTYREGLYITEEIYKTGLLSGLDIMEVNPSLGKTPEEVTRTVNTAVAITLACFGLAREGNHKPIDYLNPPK
(§2) The assays were run in clear 384 well plates (Greiner cat no: 781101). […] Two pre-mixes were prepared from reagents thawed immediately before addition to assay plates. Pre-mix one comprised human Arginase 1 or human Arginase 2, at a final concentration of 5 nM and 0.5 mM DTNB in assay buffer, 45 mM HEPES pH7.5, brij 35, 0.045% (w/v) and 100 μM MnCl2. Pre-mix two comprised freshly thawed 0.5 mM thioarginine in assay buffer.
(§3) Assay plates were centrifuged prior to reading absorbance at 412 nm in a Pherastar multi-mode plate reader to collect data at time point 0 (T0). The plates were incubated at room temperature for 60 min prior to reading again to collect data at time point 1 (T1). Data is derived by subtracting the A412 signal measured at T0 (time point 0) from that measured at T1 (time point 1). The data was transformed to % effect using the equation: Compound % effect=100*[(X−min)/(max−min)], where X represents the normalized value for the compound based on the Min (vehicle) and Max (reference compound) inhibition control.

The target of data set [2] is Human Arginase 2 (Homo sapiens (Human), UniProt P78540). The data set is described as follows: Human Arginase 2 enzyme inhibition (thioarginine/DTNB absorbance assay). The class given is biochemical. The note with it: recombinant enzyme 5 nM, 0.5 mM thioarginine premix, 60 min. As for the experimental part: as §1, §2, §3
Human Arginase 2, sequence (P78540 23-354): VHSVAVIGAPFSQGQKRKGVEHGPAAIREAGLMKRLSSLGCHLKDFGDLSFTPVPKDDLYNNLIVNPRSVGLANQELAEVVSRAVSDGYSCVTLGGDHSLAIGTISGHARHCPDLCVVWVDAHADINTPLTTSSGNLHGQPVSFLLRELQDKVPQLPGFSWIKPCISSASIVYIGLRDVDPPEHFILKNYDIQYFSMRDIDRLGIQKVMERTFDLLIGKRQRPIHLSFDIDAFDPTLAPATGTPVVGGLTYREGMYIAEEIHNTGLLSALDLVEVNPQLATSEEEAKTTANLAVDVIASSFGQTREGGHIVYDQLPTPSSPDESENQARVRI
Data set [3] is described as follows: Bioavailability / pharmacokinetic study in male rats (IV and PO). The class given is in vivo, rat. The note with it: plasma, pro-drug itself, observed when dosed as pro-drug, male rat; for clearance / Vd: IV 2 mg/kg; for Vd: read-out: Vdss; for AUC / Cmax / Tmax: PO 5 mg/kg; for bioavailability: PO 5 mg/kg vs IV 2 mg/kg. As for the experimental part: Example 8 was formulated in 0.9% w/v saline pH 4 (adjusted with 1M HCl) for IV dosing. The formulation was dosed at 2 mg/kg by femoral catheter to two male rats each (170-250 g). Jugular vein catheter serial blood samples were taken at 0.033, 0.083, 0.167, 0.5, 1, 2, 4, 8, and 24 hrs post-dose. For PO dosing, Example 8 was formulated in deionized water pH 4 (adjusted with 1M HCl) and dosed at 5 mg/kg by oral gavage to two male rats each (170-250 g). Serial blood samples were taken by jugular vein catheter at 0.25, 0.5, 1, 1.5, 2, 3, 4, 8, and 24 hrs post dose. Plasma samples were generated from blood using low speed centrifugation. […] The samples and standards were extracted by precipitation with two volumes of acetonitrile followed by centrifugation. […] Where appropriate, measured and not nominal doses were used to calculate bioavalability.

In the case of `O=C(O)[C@@]1(CCCCB(O)O)CCCN1` [Example 1, (R)-2-(4-boronobutyl)pyrrolidine-2-carboxylic acid], the half-inhibitory concentration (IC50) (as a rule, the point on the concentration scale where inhibition reaches its midpoint) stood at 14700 nM in data set [1] and 23000 nM in data set [2].

Regarding `O=C(O)[C@@]1(CCCCB(O)O)C[C@H](O)CN1` [Example 2, (2R,4S)-2-(4-boronobutyl)-4-hydroxypyrrolidine-2-carboxylic acid], the IC50 in data set [1] was found to be 26600 nM; in data set [2], 21400 nM.

Regarding `O=C(O)[C@@]1(CCCCB(O)O)C[C@@H](O)CN1` [Example 3, (2R,4R)-2-(4-boronobutyl)-4-hydroxypyrrolidine-2-carboxylic acid], the half-inhibitory concentration (IC50) in data set [1] is 4550 nM; in data set [2], 10400 nM.

As to `C[C@H](N)C(=O)N[C@H]1CN[C@@](CCCCB(O)O)(C(=O)O)C1` [Example 8, (2R,4R)-4-((S)-2-aminopropanamido)-2-(4-boronobutyl)pyrrolidine-2-carboxylic acid], the IC50 in data set [1] came to 610 nM; in data set [2], 560 nM.

Turning to `CC(C)[C@H](N)C(=O)N[C@H]1CN[C@@](CCCCB(O)O)(C(=O)O)C1` [Example 9, (2R,4R)-4-((S)-2-amino-3-methylbutanamido)-2-(4-boronobutyl)pyrrolidine-2-carboxylic acid], the 50% inhibitory concentration (IC50) in data set [1] is 320 nM. For the same compound, the IC50 in data set [2] is 330 nM. Moreover, in data set [3], the clearance was determined as 33.3 mL/min/kg; the Vd worked out at 0.2 L/kg; the AUC – broadly, the area under the concentration-time curve, a measure of exposure – is 0.24 µM·h; the maximum concentration (Cmax) – broadly, the peak of the concentration-time curve – was determined as 600 nM. Moreover, in data set [3], the Tmax (as a rule, the time at which the peak concentration occurs) stood at 15 min and the bioavailability (commonly the share of a dose that reaches the circulation, judged against a reference dose that is usually intravenous) is 3.2%.

On to `CC(C)[C@@H](N)C(=O)N[C@H]1CN[C@@](CCCCB(O)O)(C(=O)O)C1` [Example 10, (2R,4R)-4-((R)-2-amino-3-methylbutanamido)-2-(4-boronobutyl)pyrrolidine-2-carboxylic acid], for which the IC50 was 3770 nM in data set [1] and 4770 nM in data set [2].

On to `CC(C)(C)[C@H](N)C(=O)N[C@H]1CN[C@@](CCCCB(O)O)(C(=O)O)C1` [Example 11, (2R,4R)-4-((S)-2-amino-3,3-dimethylbutanamido)-2-(4-boronobutyl)pyrrolidine-2-carboxylic acid], for which the results for the half-inhibitory concentration (IC50) in data set [1] and in data set [2] were 210 nM and 200 nM, respectively.

Take `O=C(N[C@H]1CN[C@@](CCCCB(O)O)(C(=O)O)C1)[C@@H]1CCCN1` [Example 12, (2R,4R)-2-(4-boronobutyl)-4-((S)-pyrrolidine-2-carboxamido)pyrrolidine-2-carboxylic acid]: the figures for the half-inhibitory concentration (IC50) in data set [1] and in data set [2] were 700 nM and 850 nM, respectively.

With `NCC(=O)N[C@H]1CN[C@@](CCCCB(O)O)(C(=O)O)C1` [Example 13, (2R,4R)-4-(2-aminoacetamido)-2-(4-boronobutyl)pyrrolidine-2-carboxylic acid], the half-maximal inhibitory concentration (IC50) in data set [1] came out at 430 nM. Moreover, in data set [2], the IC50 came out at 630 nM. In data set [3], the clearance came to 17.9 mL/min/kg, the Vd is 0.2 L/kg, the AUC came to 0.62 µM·h and the concentration peaked (Cmax) at 460 nM. Also, in data set [3], the Tmax was 30 min and the bioavailability was determined as 3.8%.

Turning to `CC[C@H](N)C(=O)N[C@H]1CN[C@@](CCCCB(O)O)(C(=O)O)C1` [Example 14, (2R,4R)-4-((S)-2-aminobutanamido)-2-(4-boronobutyl)pyrrolidine-2-carboxylic acid], the IC50 in data set [1] was 260 nM; in data set [2] it was 310 nM.

With `CC[C@H](C)[C@H](N)C(=O)N[C@H]1CN[C@@](CCCCB(O)O)(C(=O)O)C1` [Example 15, (2R,4R)-4-((2S,3S)-2-amino-3-methylpentanamido)-2-(4-boronobutyl)pyrrolidine-2-carboxylic acid], the IC50 came to 310 nM in data set [1] and 260 nM in data set [2]. For the same compound, the clearance in data set [3] is 104 mL/min/kg. Besides, the Vd in data set [3] was 0.46 L/kg.

As to `CC(C)C[C@H](N)C(=O)N[C@H]1CN[C@@](CCCCB(O)O)(C(=O)O)C1` [Example 16, (2R,4R)-4-((S)-2-amino-4-methylpentanamido)-2-(4-boronobutyl)pyrrolidine-2-carboxylic acid], the concentration for half-maximal inhibition (IC50) in data set [1] stood at 310 nM. In data set [2], the half-inhibitory concentration (IC50) is 310 nM. Also, in data set [3], the clearance came out at 585 mL/min/kg and the Vd turned out to be 7.41 L/kg.

As to `N[C@@H](CO)C(=O)N[C@H]1CN[C@@](CCCCB(O)O)(C(=O)O)C1` [Example 17, (2R,4R)-4-((S)-2-amino-3-hydroxypropanamido)-2-(4-boronobutyl)pyrrolidine-2-carboxylic acid], in data set [1], the concentration for half-maximal inhibition (IC50) came out at 200 nM. Besides, the 50% inhibitory concentration (IC50) in data set [2] came out at 230 nM. Further, in data set [3], the clearance amounted to 40.5 mL/min/kg, the Vd came to 0.36 L/kg, the exposure (AUC) worked out at 0.38 µM·h and the highest concentration (Cmax) stood at 430 nM. Besides, in data set [3], the time to peak (Tmax) was 22.8 min and the bioavailability was determined as 5.8%.

On to `COC[C@H](N)C(=O)N[C@H]1CN[C@@](CCCCB(O)O)(C(=O)O)C1` [Example 18, (2R,4R)-4-((S)-2-amino-3-methoxypropanamido)-2-(4-boronobutyl)pyrrolidine-2-carboxylic acid], for which the IC50 came to 320 nM in data set [1] and 380 nM in data set [2]. Besides, the clearance in data set [3] worked out at 317 mL/min/kg. Besides, the Vd in data set [3] is 0.64 L/kg.

Turning to `CC(C)[C@](C)(N)C(=O)N[C@H]1CN[C@@](CCCCB(O)O)(C(=O)O)C1` [Example 21, (2R,4R)-4-[[(2S)-2-amino-2,3-dimethyl-butanoyl]amino]-2-(4-boronobutyl)pyrrolidine-2-carboxylic acid], the concentration for half-maximal inhibition (IC50) in data set [1] came out at 480 nM; in data set [2], 680 nM.

As to `NC[C@H](N)C(=O)N[C@H]1CN[C@@](CCCCB(O)O)(C(=O)O)C1` [Example 22, (2R,4R)-2-(4-boronobutyl)-4-[[(2S)-2,3-diaminopropanoyl]amino]pyrrolidine-2-carboxylic acid], the IC50 in data set [1] came out at 930 nM; in data set [2] it was 1320 nM.

Take `CN[C@H]1CN[C@@](CCCCB(O)O)(C(=O)O)C1` [Example 23, (2R,4R)-2-(4-boronobutyl)-4-(methylamino)pyrrolidine-2-carboxylic acid]: the figures for the IC50 in data set [1] and in data set [2] were 1140 nM and 2120 nM, respectively.

Regarding `CN[C@H]1CN[C@](CCCCB(O)O)(C(=O)O)C1` [Example 24, (2S,4R)-2-(4-boronobutyl)-4-(methylamino)pyrrolidine-2-carboxylic acid], the IC50 was below 3 nM in data set [1] and 10 nM in data set [2].

Take `CN(C)[C@H]1CN[C@@](CCCCB(O)O)(C(=O)O)C1` [Example 25, (2R,4R)-2-(4-boronobutyl)-4-(dimethylamino)pyrrolidine-2-carboxylic acid]: the half-inhibitory concentration (IC50) stood at 10800 nM in data set [1] and 24600 nM in data set [2].

As for `CN(C)[C@H]1CN[C@](CCCCB(O)O)(C(=O)O)C1` [Example 26, (2S,4R)-2-(4-boronobutyl)-4-(dimethylamino)pyrrolidine-2-carboxylic acid], the IC50 in data set [1] turned out to be 60 nM; in data set [2], 150 nM.

In the case of `NCCN[C@H]1CN[C@@](CCCCB(O)O)(C(=O)O)C1` [Example 27, (2R,4R)-4-(2-aminoethylamino)-2-(4-boronobutyl)pyrrolidine-2-carboxylic acid], the results for the IC50 in data set [1] and in data set [2] were 1430 nM and 3320 nM, respectively.

Take `NCCN[C@H]1CN[C@](CCCCB(O)O)(C(=O)O)C1` [Example 28, (2S,4R)-4-(2-aminoethylamino)-2-(4-boronobutyl)pyrrolidine-2-carboxylic acid]: the IC50 worked out at 90 nM in data set [1] and 190 nM in data set [2].

In the case of `CC(C)[C@H](N)C(=O)N(C)[C@H]1CN[C@@](CCCCB(O)O)(C(=O)O)C1` [Example 29, (2R,4R)-4-[[(2S)-2-amino-3-methyl-butanoyl]-methyl-amino]-2-(4-boronobutyl)pyrrolidine-2-carboxylic acid], the half-maximal inhibitory concentration (IC50) was determined as 5270 nM in data set [1] and 9280 nM in data set [2].

Take `CC(C)[C@H](N)C(=O)N(C)[C@H]1CN[C@](CCCCB(O)O)(C(=O)O)C1` [Example 30, (2S,4R)-4-[[(2S)-2-amino-3-methyl-butanoyl]-methyl-amino]-2-(4-boronobutyl)pyrrolidine-2-carboxylic acid]: the values for the half-maximal inhibitory concentration (IC50) in data set [1] and in data set [2] were 1350 nM and 2420 nM, respectively.
